Reference: patent US7781565B2 (priority 2006, dated 2010)
“Also recorded” adds a separate entry of the source.

system: NCI-60 cell lines; format: cell-based, human

Row | Substance | Cell Line with which the peptide (and its tripeptide motif) is associated | Cell Line (NCI-60 cell line the peptide is associated with) | Cell Line the peptide is associated with (peptide recovered from phage library selection on this NCI-60 cell line) | Cell Line (NCI-60 cell line the peptide and its motif are associated with)
1 | FAWGGRG | K-562-Leukemia | – | – | –
2 | SLTRAVR | Hop-92-Lung | – | – | –
3 | LGLVSTT | – | HT-29 Colon | – | –
4 | GWTMAAS | – | – | TK-10 Renal | –
5 | VRGGLTG | – | HT-29 Colon | – | –
6 | GAHGVRL | – | – | SN12C Renal | –
7 | LVRDGVL | – | MALME-3M Melanoma | – | –
8 | GLRKAGF | SR Leukemia | – | – | –
9 | WFKGPSV | – | SF-268 CNS | – | –
10 | RGLVRVV | – | COLO-205-Colon | – | –
11 | SGGAVHF | SR Leukemia | – | – | –
12 | FFGRVGI | Molt-4-Leukemia | – | – | –
13 | PAVAGST | – | – | HS 578 T Breast | –
14 | GGRPVER | – | – | UO31 Renal | –
15 | RWAGLVA | – | SF-295 CNS | – | –
16 | GLVARVR | – | – | – | SK-MEL-28 Melanoma
17 | LRSVGSW | – | HCT-15 Colon | – | –
18 | DLDGRVV | – | COLO-205-Colon | – | –
19 | QRAAVIV | – | SNB-19 CNS; also recorded: SF-539 CNS | – | –
20 | RRLSSIA | – | – | TK-10 Renal | –
21 | SLLRRLE | – | – | TK-10 Renal | –
22 | KMRIAGR | – | – | SN12C Renal | –

Row | Substance | Cell Line with which the peptide (and its tripeptide motif) is associated | Cell Line (NCI-60 cell line the peptide is associated with) | Cell Line the peptide is associated with (peptide recovered from phage library selection on this NCI-60 cell line) | Cell Line (NCI-60 cell line the peptide and its motif are associated with)
23 | VRGSVRA | H23-Lung | – | – | –
24 | LRLSSIP | CCRF-CEM Leukemia | – | – | –
25 | WAHGVLS | – | – | – | M14 Melanoma
26 | ARLLRGG | – | – | – | DU-145 Prostate
27 | VAGRVGI | – | MALME-3M Melanoma | – | MALME-3M Melanoma
28 | RGVVSGV | Hop-92-Lung | – | – | –
29 | DFTLGSS | – | – | MDA-MB-231 Breast | –
30 | AVGVSAA | – | – | MDA-MB-231 Breast | –
31 | DRGVPGL | HL-60-Leukemia | – | – | –
32 | GKALRGV | Hop-62-Lung | – | – | –
33 | IGGRWVV | – | – | – | SK-OV-3-3 Ovarian
34 | RAAGSAG | – | – | – | IGROV1 Ovarian
35 | SKYRLRS | RPMI-8226-Leukemia | – | – | –
36 | DEGGSRW | – | – | – | IGROV1 Ovarian
37 | LLSAARF | – | – | MDA-MB-231 Breast | –
38 | SVTGRVS | – | – | – | 786-0 Renal
39 | AGRIASK | – | HT-29 Colon | – | –
40 | DYVGAGT | – | – | – | DU-145 Prostate
41 | SRYTLRS | – | – | – | IGROV1 Ovarian
42 | LSAVSVK | – | – | – | SK-MEL-5 Melanoma
43 | DWVCRAS | – | HT-29 Colon | – | –
44 | PVGAAVA | – | – | – | UACC62 Melanoma

Row | Substance | Cell Line with which the peptide (and its tripeptide motif) is associated | Cell Line (NCI-60 cell line the peptide is associated with) | Cell Line the peptide is associated with (peptide recovered from phage library selection on this NCI-60 cell line) | Cell Line (NCI-60 cell line the peptide and its motif are associated with)
45 | SRKGLRS | – | – | – | 786-0 Renal
46 | SRSCGGL | – | LOX-IMVI Melanoma | – | –
47 | RLSWTVL | – | – | – | PC3 Prostate
48 | WFSWLVS | H460-Lung | – | – | –
49 | LQHLGSG | – | – | – | OVCAR-8 Ovarian
50 | GAGTSEG | – | – | TK-10 Renal | –
51 | GLRRDNG | – | – | – | OVCAR-3 Ovarian
52 | FVARLRV | – | – | TK-10 Renal | –
53 | LRRSSFS | K-562-Leukemia | – | – | –
54 | GLLSGGT | – | – | – | IGROV1 Ovarian
55 | PGVLREP | – | – | A498 Renal | –
56 | TRYSLRS | – | – | TK-10 Renal | –
57 | MGVLTAE | – | SNB-19 CNS; also recorded: SF-539 CNS | – | –
58 | WIWRAVS | – | SF-268 CNS | – | –
59 | RTGSSDL | Hop-92-Lung | – | – | –
60 | CHARGVT | Molt-4-Leukemia | – | – | –
61 | LGGLSPH | H322-Lung | – | – | –
62 | QKPGAVG | – | – | T-47D Breast | –
63 | HRLRSMS | – | – | – | UACC62 Melanoma
64 | RRDAGRM | – | SF-295 CNS | – | –
65 | GAGLSTS | H322-Lung | – | – | –
66 | GRVTGGR | – | HCT-15 Colon | – | –

Row | Substance | Cell Line with which the peptide (and its tripeptide motif) is associated | Cell Line (NCI-60 cell line the peptide is associated with) | Cell Line the peptide is associated with (peptide recovered from phage library selection on this NCI-60 cell line) | Cell Line (NCI-60 cell line the peptide and its motif are associated with)
67 | GAVLFRV | Hop-62-Lung | – | – | –
68 | GSVLMRG | – | – | – | OVCAR-4 Ovarian
69 | AAVETGV | – | SF-268 CNS | – | –
70 | PTVSAGL | – | – | NCI/ADR-RES Breast | –
71 | AGSQSWE | A549-Lung | – | – | –
72 | ARNAASP | A549-Lung | – | – | –
73 | SGSRVSL | HL-60-Leukemia | – | – | –
74 | AASVGVA | – | – | MDA-MB-231 Breast | –
75 | QLGGSFR | – | – | – | SK-MEL-28 Melanoma
76 | ACGSGLD | – | – | – | SK-MEL-5 Melanoma
77 | TGVRNSP | – | – | UO31 Renal | –
78 | LLRAGVR | – | – | UO31 Renal | –
79 | PVRGSVD | HL-60-Leukemia | – | – | –
80 | VWAGVLL | Hop-62-Lung | – | – | –
81 | QARGSWL | – | – | – | OVCAR-4 Ovarian
82 | LRIARGV | – | COLO-205-Colon | – | –
83 | HTYGVRF | – | – | TK-10 Renal | –
84 | RGAVREM | – | – | SN12C Renal | –
85 | PIGGLFG | – | – | ACHN Renal | –
86 | GAGVEYF | – | – | RXF393 Renal | –
87 | AAVWQMK | – | SNB-19 CNS; also recorded: SF-539 CNS | – | –
88 | LGTAVSS | – | SF-268 CNS | – | –

Row | Substance | Cell Line with which the peptide (and its tripeptide motif) is associated | Cell Line (NCI-60 cell line the peptide is associated with) | Cell Line the peptide is associated with (peptide recovered from phage library selection on this NCI-60 cell line) | Cell Line (NCI-60 cell line the peptide and its motif are associated with)
89 | LGVRLAS | – | – | BT-549 Breast | –
90 | GGSGELG | H23-Lung | – | – | –
91 | LSGRVIV | – | – | UO31 Renal | –
92 | TGRSSFW | – | – | TK-10 Renal | –
93 | LQGSGAY | – | – | – | OVCAR-8 Ovarian
94 | KAASTED | – | – | SN12C Renal | –
95 | FGLRSRL | SR Leukemia | – | – | –
96 | QAGSFLR | EKVX-Lung | – | – | –
97 | GRGSGGF | – | LOX-IMVI Melanoma | – | –
98 | WSSTASL | H460-Lung | – | – | –
99 | GGMNGRL | – | HT-29 Colon | – | –
100 | GGSAWWG | – | – | – | DU-145 Prostate
101 | RLAVSGY | H522-Lung | – | – | –
102 | LLRSHGV | – | SF-295 CNS | – | –
103 | TSGRLWV | – | – | – | M14 Melanoma
104 | LVPLVSG | – | – | – | SK-OV-3-3 Ovarian
105 | QMQGRAV | H226-Lung | – | – | –
106 | NAGRGAS | – | – | TK-10 Renal | –
107 | YNRSAGL | CCRF-CEM Leukemia | – | – | –
108 | GFGRLLW | – | – | A498 Renal | –
109 | HAAVEPS | – | – | – | OVCAR-5 Ovarian
110 | GESGRLS | Hop-92-Lung | – | – | –

Row | Substance | Cell Line with which the peptide (and its tripeptide motif) is associated | Cell Line (NCI-60 cell line the peptide is associated with) | Cell Line the peptide is associated with (peptide recovered from phage library selection on this NCI-60 cell line) | Cell Line (NCI-60 cell line the peptide and its motif are associated with)
111 | RIGAGHR | – | – | – | PC3 Prostate
112 | GLVRGFP | SR Leukemia | – | – | –
113 | AAVTVVR | – | KM-12C Colon | – | –
114 | WARAGGF | – | SNB-19 CNS; also recorded: SF-539 CNS | – | –
115 | YRVSSGS | – | SNB-75 CNS | – | –
116 | HGRVHRL | H23-Lung | – | – | –
117 | GGRELKA | – | – | – | PC3 Prostate
118 | RGVGWAK | H322-Lung | – | – | –
119 | RLRAASY | RPMI-8226-Leukemia | – | – | –
120 | QVAGRER | CCRF-CEM Leukemia | – | – | –
121 | AVWRLSH | H322-Lung | – | – | –
122 | AGGIWIR | – | KM-12C Colon | – | –
123 | AEGGSGH | A549-Lung | – | – | –
124 | LAIRGLG | – | SW620-Colon | – | –
125 | RASCVWA | – | – | MCF-7 Breast | –
126 | AVRGVAR | HL-60-Leukemia | – | – | –
127 | ANAASSP | – | – | – | SK-MEL-5 Melanoma
128 | RRARGAC | – | SNB-75 CNS | – | –
129 | TFAGRSL | – | – | – | A498 Renal
130 | SVEGRGV | A549-Lung | – | – | –
131 | FSGLVVA | – | HT-29 Colon | – | –
132 | GSVLHVS | – | – | HS 578 T Breast | –
